Results from patent US20150166505A1, “PYRIDINYL-SUBSTITUTED PYRAZOLYL CARBOXAMIDES” (GRÜNENTHAL GMBH, priority 2013, published 2015).
In brackets after ≈: the same amount, converted by molar mass. Read-outs that look alike come from different tables or passages of the source.

What was measured:
[1] = target: T1, CRAC channel (endogenous SOC in HEK293 cells) (Homo sapiens, UniProt Q96D31); assay: HEK Calcium Influx Assay (FLIPR); format: cell-based
T1 construct: endogenous in cells; host or cells: HEK293 (ECACC)
T1 sequence (Q96D31 whole entry): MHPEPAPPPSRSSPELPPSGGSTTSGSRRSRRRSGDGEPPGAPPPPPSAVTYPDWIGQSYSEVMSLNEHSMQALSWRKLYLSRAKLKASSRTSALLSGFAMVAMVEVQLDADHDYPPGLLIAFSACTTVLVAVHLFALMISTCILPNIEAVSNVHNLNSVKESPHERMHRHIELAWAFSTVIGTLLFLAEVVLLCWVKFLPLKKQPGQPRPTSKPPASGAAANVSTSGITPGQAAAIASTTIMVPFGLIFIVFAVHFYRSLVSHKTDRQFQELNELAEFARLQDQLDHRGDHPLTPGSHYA
Procedure, shortened: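 Endogenous SOC in HEK293 cells, Calcium-4 dye-loaded; stores depleted with 2 μM thapsigargin in Ca2+-free HBS (100 μM EGTA, pH 7.4) 10 min, then 3 mM CaCl2 added. Compound given after 15 min; signal averaged 9.5–10 min post-addition versus DMSO and non-TG controls. IC50 from 8-point 1:3.16 series starting 10 μM.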

[2] = system: Interleukin-2 (IL-2) production/release in Jurkat T cell line; assay: Jurkat IL-2 Production Assay; format: cell-based; conditions: Homo sapiens; Jurkat T cells, PHA stimulation 22 hours
Procedure, shortened: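 Jurkat E6-1 cells (5*10^5/well) preincubated 30 min with compound, then stimulated with 15 μg/ml PHA for 22 h at 37 °C. IC50 from 8-point 1:3.16 dilutions starting at 10 μM.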

[3] = Nephelometric Solubility Measurement; format: physicochemical; conditions: aqueous buffer, kinetic from dmso stock; phosphate buffered saline pH 7.4, 37° C., incubation 2 minutes
Method: Nephelometric Solubility Measurement
BMG Labtech Nephelostar (S/N 504-0167), 37° C.; Gain: 100; Laser Beam Focus 1.5 mm; Laser intensity 80%; measurement time/well 0.1 s; positioning delay 0.1 s; data analysis: BMG Labtech MARS software
Measurements with BMG Labtech Nephelostar performed though addition of DMSO stock solutions of compound (2, 5, 10, 20, 30, 40, 50, 60, 80, 100 [μg/mL]) into phosphate buffered saline (pH 7.4, purchased from Invitrogen, catalogue number 10010-056); incubation time: 2 minutes [blank measurement contains DMSO (2.5 μL) and buffered saline (47.5 μL)]; Detection of insoluble particles in liquid samples was performed by measuring forward scattered light.

[4] = thapsigargin store depletion, read-out: % inhib. [@ 10 μM] FLIPR

SMILES	inhibition at 10 µM ([1]; numeric values of Table 2, read-out: inhib. [@ 10 μM] FLIPR)	inhibition at 10 µM [1, 4]	IC50 [2]	solubility at 2 min [3]
CCOc1cc(C)c(-c2cc(C(=O)Nc3c(F)cccc3F)nn2C)cn1 [Example 3, N-(2,6-Difluoro-phenyl)-5-(6-ethoxy-4-methyl-pyridin-3-yl)-1-methyl-1H-pyrazole-3-carboxylic acid amide]	75%	> 70%	< 0.5 µM	149 µM (≈ 55.6 µg/mL)
COc1ncc(-c2nn(C)c(=O)o2)cc1-c1cc(C(=O)Nc2c(F)cccc2F)nn1C [Example 74, N-(2,6-Difluoro-phenyl)-5-[2-methoxy-5-(4-methyl-5-oxo-4H-[1,3,4]oxadiazol-2-yl)-pyridin-3-yl]-1-methyl-1H-pyrazole-3-carboxylic acid amide]	–	< 50%	1 to 5 µM	131 µM (≈ 57.8 µg/mL)
